Measurements from ChEMBL document CHEMBL1132518, “Symmetrical anhydride-type serine protease inhibitors: structure-activity relationship studies of human chymase inhibitors” (Bioorg Med Chem Lett, 1999).

Assays:
Chymase = molecular target: T1, Chymase (Homo sapiens, UniProt P23946); experiment: Inhibitory activity against human chymase (h-chymase)
T1 sequence (P23946 whole entry): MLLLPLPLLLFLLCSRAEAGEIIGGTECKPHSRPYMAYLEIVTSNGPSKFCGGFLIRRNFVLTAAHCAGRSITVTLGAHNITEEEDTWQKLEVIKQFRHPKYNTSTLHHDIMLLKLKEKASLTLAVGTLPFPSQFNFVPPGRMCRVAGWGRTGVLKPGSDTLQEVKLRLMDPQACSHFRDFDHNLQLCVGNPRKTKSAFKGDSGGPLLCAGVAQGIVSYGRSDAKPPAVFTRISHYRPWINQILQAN

Cathepsin G = molecular target: T2, Cathepsin G (Homo sapiens, UniProt P08311); experiment: Inhibitory activity against human leukocyte cathepsin G (h-CG)
T2 sequence (P08311 whole entry): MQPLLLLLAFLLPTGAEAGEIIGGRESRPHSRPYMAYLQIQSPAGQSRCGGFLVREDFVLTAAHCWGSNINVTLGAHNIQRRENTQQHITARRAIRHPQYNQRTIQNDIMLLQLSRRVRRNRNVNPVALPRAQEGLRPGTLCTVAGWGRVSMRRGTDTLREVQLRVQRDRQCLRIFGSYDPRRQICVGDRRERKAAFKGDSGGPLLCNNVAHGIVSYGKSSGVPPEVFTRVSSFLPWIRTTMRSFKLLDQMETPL

Row | IC50 (Chymase) [µM] | IC50 (Cathepsin G) [µM] | Compound
1 | 0.27 |  | CC(C)(C(=O)OC(=O)C(C)(C)C(CCc1ccccc1)NC(=O)c1ccc(C#N)cc1)C(CCc1ccccc1)NC(=O)c1ccc(C#N)cc1 (stereo unspecified)
2 | 0.058 |  | CCCC(NC(=O)c1ccccc1)C(C)(C)C(=O)OC(=O)C(C)(C)C(CCC)NC(=O)c1ccccc1 (stereo unspecified)
3 | > 1000 |  | O=C(CC(CCc1ccccc1)NC(=O)c1ccccc1)OC(=O)CC(CCc1ccccc1)NC(=O)c1ccccc1 (stereo unspecified)
4 | 29 | 1.6 | CCCCCC(NC(=O)CCC)C(C)(C)C(=O)OC(=O)C(C)(C)C(CCCCC)NC(=O)CCC (stereo unspecified)
5 | 0.13 | 0.069 | CC(C)(C(=O)OC(=O)C(C)(C)C(NC(=O)c1ccc(C#N)cc1)C1CC=CCC1)C(NC(=O)c1ccc(C#N)cc1)C1CC=CCC1 (stereo unspecified)
6 | 0.037 |  | CCC(NC(=O)c1ccccc1)C(C)(C)C(=O)OC(=O)C(C)(C)C(CC)NC(=O)c1ccccc1 (stereo unspecified)
7 | 3 |  | CC(C)(CNC(=O)c1ccccc1)C(=O)OC(=O)C(C)(C)CNC(=O)c1ccccc1
8 | 40 | 3.1 | O=C(CCNC(=O)c1ccccc1)OC(=O)CCNC(=O)c1ccccc1
9 | 13 |  | CC(C)(C(=O)OC(=O)C(C)(C)C(NC(=O)c1ccc(C#N)cc1)c1ccccc1)C(NC(=O)c1ccc(C#N)cc1)c1ccccc1 (stereo unspecified)
10 | 0.032 |  | CCCCCCC(NC(=O)c1ccccc1)C(C)(C)C(=O)OC(=O)C(C)(C)C(CCCCCC)NC(=O)c1ccccc1 (stereo unspecified)
11 | 0.005 |  | CCCCC(NC(=O)c1ccccc1)C(C)(C)C(=O)OC(=O)C(C)(C)C(CCCC)NC(=O)c1ccccc1 (stereo unspecified)
12 | 8.7 |  | Cc1ccccc1C(NC(=O)c1ccc(C#N)cc1)C(C)(C)C(=O)OC(=O)C(C)(C)C(NC(=O)c1ccc(C#N)cc1)c1ccccc1C (stereo unspecified)
13 | 47 |  | CC(C)(C(=O)OC(=O)C(C)(C)C(NC(=O)c1ccc(C#N)cc1)c1ccccc1Cl)C(NC(=O)c1ccc(C#N)cc1)c1ccccc1Cl (stereo unspecified)
14 | 0.013 |  | CCCCCC(NC(=O)c1ccccc1)C(C)(C)C(=O)OC(=O)C(C)(C)C(CCCCC)NC(=O)c1ccccc1 (stereo unspecified)
15 | 0.091 |  | CC(C)(C(=O)OC(=O)C(C)(C)C(CCc1ccccc1)NC(=O)c1ccccc1)C(CCc1ccccc1)NC(=O)c1ccccc1 (single isomer, unassigned; (+))
16 | 0.0056 |  | CCCC(=O)NC(CCc1ccccc1)C(C)(C)C(=O)OC(=O)C(C)(C)C(CCc1ccccc1)NC(=O)CCC (stereo in doubt; 9 (-))
17 | 0.02 |  | CC(C)(C(=O)OC(=O)C(C)(C)C(CCc1ccccc1)NC(=O)c1ccccc1)C(CCc1ccccc1)NC(=O)c1ccccc1 (stereo in doubt; 9)
18 | 2.6 |  | CCCC(=O)NC(CCc1ccccc1)C(C)(C)C(=O)OC(=O)C(C)(C)C(CCc1ccccc1)NC(=O)CCC (stereo in doubt; 15)
